From ChEMBL document CHEMBL3399921, “Novel 2-(2-phenalkyl)-1H-benzo[d]imidazoles as antitubercular agents. Synthesis, biological evaluation and structure-activity relationship” (Bioorg Med Chem, 2015)
Values after ≈ are worked out from the molar mass of the structure shown.

Assays:
[1] = Selectivity ratio of IC50 for mouse B16F10 cells to MIC for Mycobacterium tuberculosis Spec. 192; assay type: ADME, cell-based, B16-F10
[2] = Selectivity ratio of IC50 for neonatal HDF cells to MIC for Mycobacterium tuberculosis Spec. 192; assay type: ADME, cell-based; conditions: human
[3] = test system: Mycobacterium tuberculosis; experiment: Tuberculostatic activity against Mycobacterium tuberculosis Spec. 210 by two-fold classical test-tube method; assay type: functional
[4] = Cytotoxicity against mouse B16F10 cells after 7 days by MTT/SRB assay; assay type: cell-based; conditions: B16-F10, 168 h
[5] = Selectivity ratio of IC50 for neonatal HDF cells to MIC for Mycobacterium tuberculosis Spec. 210; assay type: ADME, cell-based; conditions: human
[6] = Cytotoxicity against HEK cells after 7 days by MTT/SRB assay; assay type: cell-based; conditions: Homo sapiens, HEK293, 168 h
[7] = Selectivity ratio of IC50 for mouse B16F10 cells to MIC for Mycobacterium tuberculosis Spec. 210; assay type: ADME, cell-based, B16-F10
[8] = test system: Mycobacterium tuberculosis; experiment: Tuberculostatic activity against Mycobacterium tuberculosis Spec. 192 by two-fold classical test-tube method; assay type: functional
[9] = Cytotoxicity against neonatal HDF cells after 7 days by MTT/SRB assay; assay type: cell-based; conditions: Homo sapiens, 168 h
[10] = test system: Mycobacterium tuberculosis; experiment: Tuberculostatic activity against Mycobacterium tuberculosis H37Rv by two-fold classical test-tube method; assay type: functional
[11] = Selectivity ratio of IC50 for neonatal HDF cells to MIC for Mycobacterium tuberculosis H37Rv; assay type: ADME, cell-based; conditions: human
[12] = Selectivity ratio of IC50 for mouse B16F10 cells to MIC for Mycobacterium tuberculosis H37Rv; assay type: ADME, cell-based, B16-F10

| SMILES | MIC [3] [µM] | MIC [8] [µM] | MIC [10] [µM] | other results |
| --- | --- | --- | --- | --- |
| Cc1cc2nc(CCc3cc(Cl)cc(Cl)c3)[nH]c2cc1C | 5 (≈ 1.6 µg/mL) | 5 (≈ 1.6 µg/mL) | 2.5 (≈ 0.798 µg/mL) | selectivity ratio [1]: 6; selectivity ratio [2]: > 11; IC50 [4]: 28 µM; selectivity ratio [5]: > 11; IC50 [6]: 7.8 µM; selectivity ratio [7]: 6; IC50 [9]: 58 µM |
| Nc1c(NC(=O)CCc2ccccc2)cc(Cl)cc1[N+](=O)[O-] | 320 (≈ 102 µg/mL) | 320 (≈ 102 µg/mL) | 320 (≈ 102 µg/mL) |  |
| Nc1c(NC(=O)/C=C/c2ccccc2)cc(Cl)cc1[N+](=O)[O-] | 320 (≈ 102 µg/mL) | 320 (≈ 102 µg/mL) | 320 (≈ 102 µg/mL) |  |
| Nc1c(NC(=O)CCc2cc(Cl)cc(Cl)c2)cc(Cl)cc1[N+](=O)[O-] | 65 (≈ 25.3 µg/mL) | 8 (≈ 3.11 µg/mL) | 8 (≈ 3.11 µg/mL) | selectivity ratio [1]: 7.5; selectivity ratio [2]: 10; IC50 [4]: 59 µM; IC50 [6]: 5.1 µM; selectivity ratio [11]: 10; IC50 [9]: 80 µM; selectivity ratio [12]: 7.5 |
| O=[N+]([O-])c1cc(Cl)cc2[nH]c(CCc3ccccc3)nc12 | 330 (≈ 99.6 µg/mL) | 330 (≈ 99.6 µg/mL) | 330 (≈ 99.6 µg/mL) |  |
| O=[N+]([O-])c1cc(Cl)cc2[nH]c(/C=C/c3ccccc3)nc12 | 340 (≈ 102 µg/mL) | 170 (≈ 51 µg/mL) | 170 (≈ 51 µg/mL) |  |
| O=[N+]([O-])c1cc(Cl)cc2[nH]c(CCc3cc(Cl)cc(Cl)c3)nc12 | 271 (≈ 100 µg/mL) | 68 (≈ 25.2 µg/mL) | 68 (≈ 25.2 µg/mL) |  |
| c1ccc(CCc2nc3cc4ccccc4cc3[nH]2)cc1 | 370 (≈ 101 µg/mL) | 370 (≈ 101 µg/mL) | 370 (≈ 101 µg/mL) |  |
| C(=C\c1nc2cc3ccccc3cc2[nH]1)/c1ccccc1 | 93 (≈ 25.1 µg/mL) | 93 (≈ 25.1 µg/mL) | 93 (≈ 25.1 µg/mL) |  |
| Clc1cc(Cl)cc(CCc2nc3cc4ccccc4cc3[nH]2)c1 | 18 (≈ 6.14 µg/mL) | 18 (≈ 6.14 µg/mL) | 18 (≈ 6.14 µg/mL) |  |
| Cc1cc2nc(CCc3ccccc3)[nH]c2cc1C | 6.3 (≈ 1.58 µg/mL) | 6.3 (≈ 1.58 µg/mL) | 6.3 (≈ 1.58 µg/mL) | IC50 [4]: 3.9 µM; IC50 [6]: 2.5 µM; IC50 [9]: 7.9 µM |
| Cc1cc2nc(/C=C/c3ccccc3)[nH]c2cc1C | 25 (≈ 6.21 µg/mL) | 13 (≈ 3.23 µg/mL) | 25 (≈ 6.21 µg/mL) |  |
| Fc1ccc2[nH]c(CCc3ccccc3)nc2c1 | 208 (≈ 50 µg/mL) | 208 (≈ 50 µg/mL) | 104 (≈ 25 µg/mL) |  |
| Fc1ccc2[nH]c(/C=C/c3ccccc3)nc2c1 | 105 (≈ 25 µg/mL) | 210 (≈ 50 µg/mL) | 210 (≈ 50 µg/mL) |  |
| Fc1ccc2[nH]c(CCc3cc(Cl)cc(Cl)c3)nc2c1 | 320 (≈ 98.9 µg/mL) | 320 (≈ 98.9 µg/mL) | 320 (≈ 98.9 µg/mL) |  |
| Cc1cc2nc(CCc3ccccc3)n(S(C)(=O)=O)c2cc1C | 76 (≈ 25 µg/mL) | 76 (≈ 25 µg/mL) | 76 (≈ 25 µg/mL) |  |
| Cc1cc2nc(/C=C/c3ccccc3)n(S(C)(=O)=O)c2cc1C | 310 (≈ 101 µg/mL) | 310 (≈ 101 µg/mL) | 310 (≈ 101 µg/mL) |  |
| Cc1cc2nc(CCc3cc(Cl)cc(Cl)c3)n(S(C)(=O)=O)c2cc1C | 32 (≈ 12.7 µg/mL) | 63 (≈ 25 µg/mL) | 32 (≈ 12.7 µg/mL) |  |
| CS(=O)(=O)n1c(CCc2ccccc2)nc2cc(F)ccc21 | 314 (≈ 100 µg/mL) | 314 (≈ 100 µg/mL) | 314 (≈ 100 µg/mL) |  |
| CS(=O)(=O)n1c(/C=C/c2ccccc2)nc2cc(F)ccc21 | 158 (≈ 50 µg/mL) | 158 (≈ 50 µg/mL) | 158 (≈ 50 µg/mL) |  |
| CS(=O)(=O)n1c(/C=C/c2cc(Cl)cc(Cl)c2)nc2cc(F)ccc21 | 130 (≈ 50.1 µg/mL) | 259 (≈ 99.8 µg/mL) | 130 (≈ 50.1 µg/mL) |  |
| Cc1cc2nc(CCc3ccccc3)n(S(=O)(=O)c3ccccc3)c2cc1C | 128 (≈ 50 µg/mL) | 64 (≈ 25 µg/mL) | 128 (≈ 50 µg/mL) |  |
| Cc1cc2nc(/C=C/c3ccccc3)n(S(=O)(=O)c3ccccc3)c2cc1C | 258 (≈ 100 µg/mL) | 258 (≈ 100 µg/mL) | 258 (≈ 100 µg/mL) |  |
| Cc1cc2nc(CCc3cc(Cl)cc(Cl)c3)n(S(=O)(=O)c3ccccc3)c2cc1C | 55 (≈ 25.3 µg/mL) | 55 (≈ 25.3 µg/mL) | 55 (≈ 25.3 µg/mL) |  |
| O=S(=O)(c1ccccc1)n1c(CCc2ccccc2)nc2cc(F)ccc21 | 263 (≈ 100 µg/mL) | 263 (≈ 100 µg/mL) | 263 (≈ 100 µg/mL) |  |
| O=S(=O)(c1ccccc1)n1c(/C=C/c2ccccc2)nc2cc(F)ccc21 | 264 (≈ 99.9 µg/mL) | 132 (≈ 50 µg/mL) | 132 (≈ 50 µg/mL) |  |
| O=S(=O)(c1ccccc1)n1c(CCc2cc(Cl)cc(Cl)c2)nc2cc(F)ccc21 | 56 (≈ 25.2 µg/mL) | 112 (≈ 50.3 µg/mL) | 56 (≈ 25.2 µg/mL) |  |
| NNC(=O)c1ccncc1 [ISONIAZID] | 182 (≈ 25 µg/mL) | 91 (≈ 12.5 µg/mL) | 91 (≈ 12.5 µg/mL) |  |
| NC(=O)c1cnccn1 [PYRAZINAMIDE] | 3250 (≈ 400 µg/mL) | 203 (≈ 25 µg/mL) | 203 (≈ 25 µg/mL) |  |
| CO[C@H]1/C=C/O[C@@]2(C)Oc3c(C)c(O)c4c(O)c(c(/C=N/N5CCN(C)CC5)c(O)c4c3C2=O)NC(=O)/C(C)=C\C=C\[C@H](C)[C@H](O)[C@@H](C)[C@@H](O)[C@@H](C)[C@H](OC(C)=O)[C@@H]1C [RIFAMPIN] | 2.8 (≈ 2.3 µg/mL) | 1.4 (≈ 1.15 µg/mL) | 1.4 (≈ 1.15 µg/mL) |  |
